# Test results as given in ChEMBL document CHEMBL1122174, “Behavioral and serotonin receptor properties of 4-substituted derivatives of the hallucinogen 1-(2,5-dimethoxyphenyl)-2-aminopropane” (J Med Chem, 1982).
# Calls of active or inactive are those of the source. The calls are words filed in the database; no cut-off is given here.
# Key:
# Rattus norvegicus [1] = assay: Dose required to produce 50% hallucinogenic potency in rat was determined at a dose of 8 mg/kg; format: functional
# Rattus norvegicus [2] = assay: Dose required to produce 50% hallucinogenic potency in rat was determined at a dose of 5 mg/kg; format: functional
# [3] = target: Serotonin (5-HT) receptor; assay: Binding affinity at rat 5-hydroxytryptamine receptor.; format: protein assay
# Rattus norvegicus [4] = assay: Number of rats responding out of 5 treated rats at a dose of 10 mg/Kg; format: functional
# Rattus norvegicus [5] = assay: Number of rats responding out of 5 treated rats at a dose of 2 mg/Kg; format: functional
# Rattus norvegicus [6] = assay: Dose required to produce 50% hallucinogenic potency in rat was determined at a dose of 2.0 mg/kg; format: functional
# Rattus norvegicus [7] = assay: Number of rats responding out of 5 treated rats at a dose of 5 mg/Kg; format: functional
# Rattus norvegicus [8] = assay: Number of rats responding out of 5 treated rats at a dose of 9 mg/Kg; format: functional
# Rattus norvegicus [9] = assay: Dose required to produce 50% hallucinogenic potency in rat was determined at a dose of 9 mg/kg; format: functional
# Rattus norvegicus [10] = species: Rattus norvegicus; assay: Dose at which the rats perform 50% appropriate drug -lever responding was determined; format: functional
# Homo sapiens = species: Homo sapiens; assay: Hallucinogenic potency was determined in humans; format: functional
# Rattus norvegicus [11] = assay: Number of rats responding out of 5 treated rats at a dose of 8 mg/Kg; format: functional
# Rattus norvegicus [12] = assay: Number of rats responding out of 5 treated rats at a dose of 1 mg/Kg; format: functional
# Rattus norvegicus [13] = assay: Dose required to produce 50% hallucinogenic potency in rat was determined at a dose of 1.5 mg/kg; format: functional
# Rattus norvegicus [14] = assay: Dose required to produce 50% hallucinogenic potency in rat was determined at a dose of 1 mg/kg; format: functional
# Rattus norvegicus [15] = assay: Number of rats responding out of 5 treated rats at a dose of 0.75 mg/Kg; format: functional
# Rattus norvegicus [16] = assay: Dose required to produce 50% hallucinogenic potency in rat was determined at a dose of 0.75 mg/kg; format: functional
# Rattus norvegicus [17] = assay: Dose required to produce 50% hallucinogenic potency in rat was determined at a dose of 2.5 mg/kg; format: functional
# Rattus norvegicus [18] = assay: Dose required to produce 50% hallucinogenic potency in rat was determined at a dose of 0.5 mg/kg; format: functional
# Rattus norvegicus [19] = assay: Number of rats responding out of 5 treated rats at a dose of 2.5 mg/Kg; format: functional
# Rattus norvegicus [20] = assay: Dose required to produce 50% hallucinogenic potency in rat was determined at a dose of 3 mg/kg; format: functional
# Rattus norvegicus [21] = assay: Number of rats responding out of 5 treated rats at a dose of 0.5 mg/Kg; format: functional
# Rattus norvegicus [22] = assay: Number of rats responding out of 5 treated rats at a dose of 4 mg/Kg; format: functional
# Rattus norvegicus [23] = assay: Dose required to produce 50% hallucinogenic potency in rat was determined at a dose of 4 mg/kg; Disruption behavior; format: functional, organism-based; design: dose 4 mg/kg
# Rattus norvegicus [24] = assay: Dose required to produce 50% hallucinogenic potency in rat was determined at a dose of 2 mg/kg; format: functional
# Rattus norvegicus [25] = assay: Number of rats responding out of 5 treated rats at a dose of 3 mg/Kg; format: functional
# Rattus norvegicus [26] = assay: Dose required to produce 50% hallucinogenic potency in rat was determined at a dose of 4 mg/kg; format: functional
# Rattus norvegicus [27] = assay: Dose required to produce 50% hallucinogenic potency in rat was determined at a dose of 0.125 mg/kg; format: functional
# Rattus norvegicus [28] = assay: Number of rats responding out of 5 treated rats at a dose of 0.20 mg/Kg; format: functional
# Rattus norvegicus [29] = assay: Dose required to produce 50% hallucinogenic potency in rat was determined at a dose of 0.25 mg/kg; format: functional
# Rattus norvegicus [30] = assay: Dose required to produce 50% hallucinogenic potency in rat was determined at a dose of 0.2 mg/kg; format: functional
# Rattus norvegicus [31] = assay: Number of rats responding out of 5 treated rats at a dose of 0.25 mg/Kg; format: functional
# Rattus norvegicus [32] = assay: Number of rats responding out of 5 treated rats at a dose of 0.125 mg/Kg; format: functional
# Rattus norvegicus [33] = assay: Dose required to produce 50% hallucinogenic potency in rat was determined at a dose of 5.0 mg/kg; format: functional
# Rattus norvegicus [34] = assay: Dose required to produce 50% hallucinogenic potency in rat was determined at a dose of 5.5 mg/kg; format: functional
# Rattus norvegicus [35] = assay: Number of rats responding out of 5 treated rats at a dose of 3.5 mg/Kg; format: functional
# Rattus norvegicus [36] = assay: Dose required to produce 50% hallucinogenic potency in rat was determined at a dose of 3.5 mg/kg; format: functional
# Rattus norvegicus [37] = assay: Number of rats responding out of 5 treated rats at a dose of 5.5 mg/Kg; format: functional
# Rattus norvegicus [38] = assay: Dose required to produce 50% hallucinogenic potency in rat was determined at a dose of 3.0 mg/kg; format: functional
# Rattus norvegicus [39] = assay: Dose required to produce 50% hallucinogenic potency in rat was determined at a dose of 2 mg/kg; Disruption behavior; format: functional, organism-based; design: dose 2 mg/kg
# Rattus norvegicus [40] = assay: Number of rats responding out of 5 treated rats at a dose of 1.5 mg/Kg; format: functional
# Rattus norvegicus [41] = assay: Dose required to produce 50% hallucinogenic potency in rat was determined at a dose of 3 mg/kg; Disruption behavior; format: functional, organism-based; design: dose 3 mg/kg
Structure (SMILES),pA2 [3],No. of animals (Rattus norvegicus [5]),No. of animals (Rattus norvegicus [7]),ED50 (Rattus norvegicus [10]) [mg/kg],HHP (Homo sapiens) [mg],No. of animals (Rattus norvegicus [12]),DOM (Rattus norvegicus [14]) [%],DOM (Rattus norvegicus [18]) [%],DOM (Rattus norvegicus [20]) [%],No. of animals (Rattus norvegicus [21]),No. of animals (Rattus norvegicus [22]),DOM (Rattus norvegicus [24]) [%],No. of animals (Rattus norvegicus [25]),also measured
CCOc1cc(OC)c(CC(C)N)cc1OC (racemic),6.78,5,5,6.33,30,–,–,–,–,–,–,–,–,DOM (Rattus norvegicus [1]): 68%; DOM (Rattus norvegicus [2]): 16%; No. of animals (Rattus norvegicus [4]): 1; DOM (Rattus norvegicus [6]): 2%; No. of animals (Rattus norvegicus [8]): 4; DOM (Rattus norvegicus [9]): 85%; No. of animals (Rattus norvegicus [11]): 5
COc1cc(CC(C)N)c(OC)cc1F (racemic),7.2,–,–,1.45,–,5,43,6,88,5,–,–,–,DOM (Rattus norvegicus [13]): 45%; No. of animals (Rattus norvegicus [15]): 5; DOM (Rattus norvegicus [16]): 25%; DOM (Rattus norvegicus [17]): 66%; No. of animals (Rattus norvegicus [19]): 5
COc1ccccc1CC(C)N (racemic),–,5,–,–,–,–,–,–,7,–,2,2,4,DOM (Rattus norvegicus [23]): inactive
COc1cccc(CC(C)N)c1 (racemic),–,5,1,–,–,–,–,–,–,–,3,8,–,DOM (Rattus norvegicus [23]): inactive; DOM (Rattus norvegicus [26]): 10%
COc1cc(CC(C)N)c(OC)cc1Br (racemic) [BROLAMFETAMINE],–,–,–,0.2,0.8,–,–,91,–,5,–,–,–,DOM (Rattus norvegicus [27]): 18%; No. of animals (Rattus norvegicus [28]): 5; DOM (Rattus norvegicus [29]): 70%; DOM (Rattus norvegicus [30]): 51%; No. of animals (Rattus norvegicus [31]): 5; No. of animals (Rattus norvegicus [32]): 5
COc1cc(OC)c(OC)cc1CC(C)N (racemic),–,–,5,3.59,20,–,–,–,–,–,5,–,–,DOM (Rattus norvegicus [33]): 81%; DOM (Rattus norvegicus [34]): 90%; No. of animals (Rattus norvegicus [35]): 5; DOM (Rattus norvegicus [36]): 59%; DOM (Rattus norvegicus [26]): 70%; No. of animals (Rattus norvegicus [37]): 6; DOM (Rattus norvegicus [38]): 20%
COc1cc(Br)c(OC)c(CC(C)N)c1 (racemic),–,5,–,–,–,5,2,–,0,–,–,3,4,–
COc1cc(C[C@@H](C)N)c(OC)cc1I,7.63,–,–,0.26,–,–,–,75,–,5,–,–,–,DOM (Rattus norvegicus [27]): 18%; No. of animals (Rattus norvegicus [15]): 5; DOM (Rattus norvegicus [29]): 47%; DOM (Rattus norvegicus [16]): 96%; No. of animals (Rattus norvegicus [31]): 5; No. of animals (Rattus norvegicus [32]): 5
CC(N)Cc1ccccc1 (racemic) [AMPHETAMINE],–,1,–,–,–,5,2,–,–,–,–,–,0,DOM (Rattus norvegicus [13]): 26%; DOM (Rattus norvegicus [39]): inactive; No. of animals (Rattus norvegicus [40]): 3; DOM (Rattus norvegicus [41]): inactive
